From US20030134292A1, “Thermostable DNA polymerases and methods of making same” (priority 2001, published 2003) come the findings set out here.

What all share (format): biochemical
For experiment [1], the target named is T1, Taq Δ271 F667Y E681W (polymerase B) (Thermus aquaticus, UniProt P19821, E681W/F272M/F667Y).
T1 construct: made in house; host or cells: E. coli
Description: DNA polymerase activity assay with detergent or additive, Taq Δ271 F667Y E681W purified without detergent. How it is done:
(§1) DNA polymerase activity was measured by running reactions of 50 μL containing 25 mM TAPS (tris-hydroxymethyl-methylaminopropane sulfonic acid) buffer, pH 9.3 (measured at 25° C.), 50 mM KCl, 2 mM MgCl2, 1 mM 2-mercaptoethanol, 0.2 mM each of dGTP, dCTP, dTTP, 0.2 mM [α-^33P]-dATP (0.05-0.1 Ci/mmol) and 0.4 mg/mL activated salmon sperm DNA. The reaction mixture (45 μL) was pre-heated to 74° C. and diluted polymerase (5 μL) added with thorough mixing. After 10 minutes of further incubation at 74° C., the reaction was stopped by the addition of 10 μL of 60 mM EDTA and the entire mixture placed at 0° C. Acid-precipitable radioactivity was determined on an aliquot ([…]) by diluting with 1 ml of 2 mM EDTA containing 0.05 mg/ml salmon sperm DNA and adding 1 mL of 20% (w/v) trichloroacetic acid, 2% (w/v) sodium pyrophosphate (Na4P2O7 10H2O) and incubating on ice for at least 15 minutes. Precipitated DNA was collected by filtering through 2.4 cm GFC filter disks (Schleichter and Schuell) and washed 7 times with 5ml of with 1 N HCl, 0.1 M sodium pyrophosphate. The filter was placed in 3 ml of aqueous scintillation counting fluid and ^33P-specific radioactivity determined by scintillation counting.
(§2) For the assays presented in Tables 5 and 6, the polymerase was diluted 10-5000 fold in a buffer containing 25 mM Tris-HCl pH 8.0, 50 mM KCl, 1 mM 2-mercaptoethanol, and the indicated concentration of detergent or other additive. Where possible, only reactions which incorporated 20- 100 pmol of dAMP in 10 minutes were used for calculation of activity.

For experiment [2], the target named is T2, Taq Δ271 F667Y (polymerase A) (Thermus aquaticus, UniProt P19821, F272M/F667Y).
T2 construct: made in house; host or cells: E. coli
T2 sequence (P19821 272-832 F272M/F667Y): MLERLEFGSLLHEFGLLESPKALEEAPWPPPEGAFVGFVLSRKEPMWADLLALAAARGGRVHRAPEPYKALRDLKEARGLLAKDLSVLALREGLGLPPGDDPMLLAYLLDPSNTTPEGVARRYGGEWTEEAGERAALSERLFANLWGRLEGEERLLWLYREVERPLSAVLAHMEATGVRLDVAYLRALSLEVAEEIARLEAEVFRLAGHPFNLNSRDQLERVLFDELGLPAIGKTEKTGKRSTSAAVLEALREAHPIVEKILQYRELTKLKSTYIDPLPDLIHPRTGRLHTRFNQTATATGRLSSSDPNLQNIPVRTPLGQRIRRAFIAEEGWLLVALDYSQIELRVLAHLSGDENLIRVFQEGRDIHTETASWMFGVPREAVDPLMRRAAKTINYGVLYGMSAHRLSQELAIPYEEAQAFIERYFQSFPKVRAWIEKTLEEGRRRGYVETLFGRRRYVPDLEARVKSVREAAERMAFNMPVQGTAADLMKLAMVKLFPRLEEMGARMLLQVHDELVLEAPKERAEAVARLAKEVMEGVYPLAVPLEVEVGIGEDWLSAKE
Description: DNA polymerase activity assay with detergent or additive, Taq Δ271 F667Y purified without detergent. Here is the method:
as §1, §2

Experiment [3] concerns the target T3, Tth Δ273 F668Y (polymerase C) (Thermus thermophilus, UniProt P52028, F274M/F669Y).
T3 construct: made in house; host or cells: E. coli
Description: DNA polymerase activity assay with detergent or additive, Tth Δ273 F668Y purified without detergent. How it is done: as §1, §2

The mark [4] stands for this setting: additive final concentration 0.01% (w/v).
[5] abbreviates: additive final concentration 0.05% (w/v).
The mark [6] stands for this setting: additive final concentration 0.1% (w/v).
Setting [7] is: additive final concentration 0.001% (w/v) in assay reaction mixture.
[8] abbreviates: additive final concentration 0.5% (w/v).
The mark [9] stands for this setting: additive final concentration 0.85% (w/v).
The mark [10] stands for this setting: additive final concentration 60 μg/ml.
Where [11] appears, read: additive final concentration 20 μg/ml.
The mark [12] stands for this setting: additive final concentration 100 μg/ml.

T1 sequence (P19821 272-832 F272M/F667Y/E681W): as the sequence (P19821 272-832 F272M/F667Y) above, with E410W counted along it
T3 sequence (P52028 274-834 F274M/F669Y): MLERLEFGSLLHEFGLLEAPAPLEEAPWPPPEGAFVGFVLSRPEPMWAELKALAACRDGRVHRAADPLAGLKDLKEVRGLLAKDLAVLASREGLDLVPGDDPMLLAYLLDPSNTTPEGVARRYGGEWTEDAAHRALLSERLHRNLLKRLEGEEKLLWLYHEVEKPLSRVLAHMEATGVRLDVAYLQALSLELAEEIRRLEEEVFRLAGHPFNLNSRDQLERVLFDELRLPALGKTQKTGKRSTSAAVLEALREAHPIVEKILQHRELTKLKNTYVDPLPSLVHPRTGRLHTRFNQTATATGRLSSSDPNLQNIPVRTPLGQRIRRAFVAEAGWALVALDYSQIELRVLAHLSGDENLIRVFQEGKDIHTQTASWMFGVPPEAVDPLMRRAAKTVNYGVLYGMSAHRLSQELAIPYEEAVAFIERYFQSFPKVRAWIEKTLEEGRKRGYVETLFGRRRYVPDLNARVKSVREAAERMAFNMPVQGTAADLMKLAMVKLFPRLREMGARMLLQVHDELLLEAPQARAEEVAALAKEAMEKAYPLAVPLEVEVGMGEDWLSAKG

Regarding `C[C@H](CCC(=O)[O-])[C@H]1CC[C@H]2[C@@H]3[C@H](O)C[C@@H]4C[C@H](O)CC[C@]4(C)[C@H]3C[C@H](O)[C@]12C.[Na+]` [Sodium Cholate], the “Taq Δ271 F667Y E681W activity relative to 0.5% each NP-40 and Tween 20” value in experiment [1] (setting [4]), in experiment [1] (setting [5]) and in experiment [1] (setting [6]) was “− − − (Activity < 20%)” in each case. The “Taq Δ271 F667Y activity relative to 0.5% each NP-40 and Tween 20” value in experiment [2] (setting [4]), in experiment [2] (setting [5]) and in experiment [2] (setting [6]) was “− − − (Activity < 20%)” in each case. Further, the “Tth Δ273 F668Y activity relative to 0.5% each NP-40 and Tween 20” value in experiment [3] (setting [4]), in experiment [3] (setting [5]) and in experiment [3] (setting [6]) was “− − − (Activity < 20%)” in each case.

As to `C[C@H](CCC(=O)NCCC[N+](C)(C)CC(O)CS(=O)(=O)[O-])[C@H]1CC[C@H]2[C@@H]3[C@H](O)C[C@@H]4C[C@H](O)CC[C@]4(C)[C@H]3C[C@H](O)[C@]12C` (stereo partly shown) [CHAPSO, 3-[(3-Cholamidopropyl)dimethylammonio]-2-hydroxy-1-propanesulfonate], the “Taq Δ271 F667Y E681W activity relative to 0.5% each NP-40 and Tween 20” value was “− − − (Activity < 20%)” in experiment [1] (setting [4]), “− − (Activity 20-50%)” in experiment [1] (setting [5]) and “− − (Activity 20-50%)” in experiment [1] (setting [6]). In addition, the “Taq Δ271 F667Y activity relative to 0.5% each NP-40 and Tween 20” value in experiment [2] (setting [4]) is on record as “− − − (Activity < 20%)”; in experiment [2] (setting [5]), “− − (Activity 20-50%)”; in experiment [2] (setting [6]), “+ (Activity 60-70%)”. For the same molecule, the “Tth Δ273 F668Y activity relative to 0.5% each NP-40 and Tween 20” value in experiment [3] (setting [4]) was “− (Activity 50-60%)”; in experiment [3] (setting [5]), “− − (Activity 20-50%)”; in experiment [3] (setting [6]), “− − (Activity 20-50%)”.

Take `CCCCCCCCCCCCCC[N+](C)(C)CCCS(=O)(=O)[O-]` [Zwittergent 3-14]: the “Taq Δ271 F667Y E681W activity relative to 0.5% each NP-40 and Tween 20” value in experiment [1] (setting [4]) is “− − − (Activity < 20%)”.

Turning to `C[C@H](CCC(=O)NCCC[N+](C)(C)CCCS(=O)(=O)[O-])[C@H]1CC[C@H]2[C@@H]3[C@H](O)C[C@@H]4C[C@H](O)CC[C@]4(C)[C@H]3C[C@H](O)[C@]12C` [CHAPS, 3-[(3-Cholamidopropyl)dimethylammonio]-1-propanesulfonate], the results for the “Taq Δ271 F667Y E681W activity relative to 0.5% each NP-40 and Tween 20” value in experiment [1] (setting [4]), in experiment [1] (setting [5]) and in experiment [1] (setting [6]) were “− − − (Activity < 20%)”, “− − (Activity 20-50%)” and “− (Activity 50-60%)”, respectively. The “Taq Δ271 F667Y activity relative to 0.5% each NP-40 and Tween 20” value is on record as “− − (Activity 20-50%)” in experiment [2] (setting [4]), “− (Activity 50-60%)” in experiment [2] (setting [5]) and “+ (Activity 60-70%)” in experiment [2] (setting [6]). The “Tth Δ273 F668Y activity relative to 0.5% each NP-40 and Tween 20” value in experiment [3] (setting [4]) is “− (Activity 50-60%)”; in experiment [3] (setting [5]) it was “− − (Activity 20-50%)”; in experiment [3] (setting [6]) it was “− − (Activity 20-50%)”.

As for `CCCCCCCCCCCCO[C@@H]1O[C@H](CO)[C@@H](O[C@H]2O[C@H](CO)[C@@H](O)[C@H](O)[C@H]2O)[C@H](O)[C@H]1O` [n-Dodecyl-β-D-Maltoside, n-dodecyl-β-D-maltoside], the “Taq Δ271 F667Y E681W activity relative to 0.5% each NP-40 and Tween 20” value in experiment [1] (setting [7]) is “+ (Activity 60-70%)”; in experiment [1] (setting [4]) it was “+ + + (Activity > 80% (relative to activity using 0.5% each NP-40 and Tween 20))”; in experiment [1] (additive final concentration 0.02% (w/v)), “+ (Activity 60-70%)”; in experiment [1] (setting [6]) it was “+ (Activity 60-70%)”. Further, in experiment [1] (detergent 0.01% (w/v)), the “Polymerase B Activity (%)” value was found to be 92.3%. For the same molecule, in experiment [2] (setting [4]), the “Taq Δ271 F667Y activity relative to 0.5% each NP-40 and Tween 20” value is on record as “+ ++”. Besides, the “Polymerase A Activity (%)” value in experiment [2] (detergent 0.01% (w/v)) came out at 98.8%. In experiment [3] (setting [4]), the “Tth Δ273 F668Y activity relative to 0.5% each NP-40 and Tween 20” value was “+ + + (Activity > 80% (relative to activity using 0.5% each NP-40 and Tween 20))”. The “Polymerase C Activity (%)” value in experiment [3] (detergent 0.01% (w/v)) is reported as 80.8%.

Take `CCCCCCCC(=O)N(C)C[C@H](O)[C@@H](O)[C@H](O)[C@H](O)CO` [Mega-8, Ocatanoyl-N-mehtylglucamide]: the “Taq Δ271 F667Y E681W activity relative to 0.5% each NP-40 and Tween 20” value is “− − − (Activity < 20%)” in experiment [1] (setting [7]); “− − − (Activity < 20%)” in experiment [1] (setting [4]); “− (Activity 50-60%)” in experiment [1] (setting [6]); “+ + + (Activity > 80% (relative to activity using 0.5% each NP-40 and Tween 20))” in experiment [1] (setting [8]); “− − (Activity 20-50%)” in experiment [1] (setting [9]). Besides, the “Polymerase B Activity (%)” value in experiment [1] (detergent 0.5% (w/v)) was found to be 71%. Further, the entries for the “Taq Δ271 F667Y activity relative to 0.5% each NP-40 and Tween 20” value in experiment [2] (setting [6]) and in experiment [2] (setting [9]) were “+ + (Activity 70-80%)” and “+ (Activity 60-70%)”, respectively. Moreover, the “Polymerase A Activity (%)” value in experiment [2] (detergent 0.5% (w/v)) is on record as 76.6%. In addition, the “Tth Δ273 F668Y activity relative to 0.5% each NP-40 and Tween 20” value in experiment [3] (setting [6]) is recorded as “+ + (Activity 70-80%)”; in experiment [3] (setting [8]), “+ (Activity 60-70%)”; in experiment [3] (setting [9]) it was “+ (Activity 60-70%)”. Also, the “Polymerase C Activity (%)” value in experiment [3] (detergent 0.5% (w/v)) is on record as 84.5%.

Turning to gelatin, the “Tth Δ273 F668Y activity relative to 0.5% each NP-40 and Tween 20” value in experiment [3] (additive final concentration 50 μg/ml) is “− − − (Activity < 20%)”.

On to `CCCCCCCCO[C@@H]1O[C@H](CO)[C@H](O)[C@H](O)[C@H]1O` [N-octyl β-D-galactopyranoside], for which the “Taq Δ271 F667Y E681W activity relative to 0.5% each NP-40 and Tween 20” value in experiment [1] (setting [4]) was “− − − (Activity < 20%)”; in experiment [1] (setting [6]), “− (Activity 50-60%)”; in experiment [1] (additive final concentration 0.25% (w/v)), “+ (Activity 60-70%)”; in experiment [1] (setting [8]) it was “− − − (Activity < 20%)”. Further, the “Taq Δ271 F667Y activity relative to 0.5% each NP-40 and Tween 20” value in experiment [2] (setting [7]) is recorded as “− − − (Activity < 20%)”; in experiment [2] (setting [4]) it was “− − − (Activity < 20%)”; in experiment [2] (setting [5]) it was “− − (Activity 20-50%)”. In addition, the “Tth Δ273 F668Y activity relative to 0.5% each NP-40 and Tween 20” value in experiment [3] (setting [7]) is “− − (Activity 20-50%)”; in experiment [3] (setting [4]), “− − (Activity 20-50%)”; in experiment [3] (setting [5]), “+ + + (Activity > 80% (relative to activity using 0.5% each NP-40 and Tween 20))”.

On to “Bovine Serum Albumin (BSA): Bovine Serum Albumin”, for which the “Taq Δ271 F667Y activity relative to 0.5% each NP-40 and Tween 20” value in experiment [2] (setting [10]) is listed as “− (Activity 50-60%)”. Moreover, in experiment [3] (setting [10]), the “Tth Δ273 F668Y activity relative to 0.5% each NP-40 and Tween 20” value is “− − (Activity 20-50%)”.

On to “E. coli Single-Stranded DNA Binding Protein: E. coli Single-Stranded DNA Binding Protein”, for which the “Tth Δ273 F668Y activity relative to 0.5% each NP-40 and Tween 20” value in experiment [3] (setting [11]) and in experiment [3] (setting [12]) was “− − − (Activity < 20%)” in each case.

B1: T4 gene 32 Protein: T4 gene 32 Protein (protein, UniProt P03695 1-301, looked up)
Single-stranded DNA-binding …: MFKRKSTAELAAQMAKLNGNKGFSSEDKGEWKLKLDNAGNGQAVIRFLPSKNDEQAPFAILVNHGFKKNGKWYIETCSSTHGDYDSCPVCQYISKNDLYNTDNKEYSLVKRKTSYWANILVVKDPAAPENEGKVFKYRFGKKIWDKINAMIAVDVEMGETPVDVTCPWEGANFVLKVKQVSGFSNYDESKFLNQSAIPNIDDESFQKELFEQMVDLSEMTSKDKFKSFEELNTKFGQVMGTAVMGGAAATAAKKADKVADDLDAFNVDDFNTKTEDDFMSSSSGSSSSADDTDLDDLLNDL
Take B1: the “Tth Δ273 F668Y activity relative to 0.5% each NP-40 and Tween 20” value in experiment [3] (setting [11]) and in experiment [3] (setting [12]) was “− − − (Activity < 20%)” each time.
